# Laboratory results as given in ChEMBL document CHEMBL1201862, “PubChem BioAssay data set” (2004).
#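 Compound exposure: 48 hours, 5 concentrations, 96-well plates. GI50: concentration for 50% inhibition of growth.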 Calls of active or inactive are those of the source. Cut-off read from the data, not from the text of the source: active = GI50 up to about 1.1 µM and inactive = higher.
# Columns and labels:
# Test in all cases: NCI anticancer screen, dose series, 48 h
# K562 = test system: K562
# SNB-78 = test system: SNB-78
# DMS-114 = test system: DMS-114
# HT-29 = test system: HT-29
# SK-MEL-2 = test system: SK-MEL-2
# RPMI-8226 = test system: RPMI-8226
# UACC-62 = test system: UACC-62
# HOP-18 = test system: HOP-18
# A549 = test system: A549
# SF-295 = test system: SF-295
# Malme-3M = test system: Malme-3M
# DLD-1 = test system: DLD-1
# 786-0 = test system: 786-0
# CCRF-CEM = test system: CCRF-CEM
# HL-60 = test system: HL-60
# HCT-116 = test system: HCT-116
# NCI-H226 = test system: NCI-H226
# SK-MEL-28 = test system: SK-MEL-28
# SR = test system: SR
# SK-MEL-5 = test system: SK-MEL-5
# OVCAR-5 = test system: OVCAR-5
# COLO 205 = test system: COLO 205
# SF-268 = test system: SF-268
# LXFL 529 = test system: LXFL 529
# SNB-19 = test system: SNB-19
# KM-20L2 = test system: KM-20L2
# SK-OV-3 = test system: SK-OV-3
# LOX IMVI = test system: LOX IMVI
# HOP-62 = test system: HOP-62
# U-251 = test system: U-251
# HCC 2998 = test system: HCC 2998
# OVCAR-3 = test system: OVCAR-3
# EKVX = test system: EKVX
# MOLT-4 = test system: MOLT-4
# UACC-257 = test system: UACC-257
# UO-31 = test system: UO-31
# M19-MEL = test system: M19-MEL
# IGROV-1 = test system: IGROV-1
# OVCAR-8 = test system: OVCAR-8
# M14 = test system: M14
# KM12 = test system: KM12
# DMS-273 = test system: DMS-273
# CAKI-1 = test system: CAKI-1
# TK-10 = test system: TK-10
# ACHN = test system: ACHN
# HCT-15 = test system: HCT-15
# RXF 393 = test system: RXF 393
# NCI-H522 = test system: NCI-H522
# NCI-H23 = test system: NCI-H23
# SW-620 = test system: SW-620
# SN12C = test system: SN12C
# SNB-75 = test system: SNB-75
# NCI-H460 = test system: NCI-H460
# OVCAR-4 = test system: OVCAR-4
# XF498 = test system: XF498
# HOP-92 = test system: HOP-92
# A498 = test system: A498
# SF-539 = test system: SF-539
smiles,measurement,setting,value
CC(c1ccc(Br)cc1)C(C(=O)O)C(=O)O (stereo unspecified),GI50,K562,> 100 µM (inactive)
same,GI50,SNB-78,> 100 µM (inactive)
same,GI50,DMS-114,> 100 µM (inactive)
same,GI50,HT-29,> 100 µM (inactive)
same,GI50,SK-MEL-2,> 100 µM (inactive)
same,GI50,RPMI-8226,> 100 µM (inactive)
same,GI50,UACC-62,> 100 µM (inactive)
same,GI50,HOP-18,> 100 µM (inactive)
same,GI50,A549,> 100 µM (inactive)
same,GI50,SF-295,> 100 µM (inactive)
same,GI50,Malme-3M,> 100 µM (inactive)
same,GI50,DLD-1,> 100 µM (inactive)
same,GI50,786-0,> 100 µM (inactive)
same,GI50,CCRF-CEM,> 100 µM (inactive)
same,GI50,HL-60,> 100 µM (inactive)
same,GI50,HCT-116,> 100 µM (inactive)
same,GI50,NCI-H226,> 100 µM (inactive)
same,GI50,SK-MEL-28,> 100 µM (inactive)
same,GI50,SR,> 100 µM (inactive)
same,GI50,SK-MEL-5,> 100 µM (inactive)
same,GI50,OVCAR-5,> 100 µM (inactive)
same,GI50,COLO 205,> 100 µM (inactive)
same,GI50,SF-268,> 100 µM (inactive)
same,GI50,LXFL 529,> 100 µM (inactive)
same,GI50,SNB-19,> 100 µM (inactive)
same,GI50,KM-20L2,> 100 µM (inactive)
same,GI50,SK-OV-3,> 100 µM (inactive)
same,GI50,LOX IMVI,> 100 µM (inactive)
same,GI50,HOP-62,> 100 µM (inactive)
same,GI50,U-251,> 100 µM (inactive)
same,GI50,HCC 2998,> 100 µM (inactive)
same,GI50,OVCAR-3,> 100 µM (inactive)
same,GI50,EKVX,> 100 µM (inactive)
same,GI50,MOLT-4,> 100 µM (inactive)
same,GI50,UACC-257,> 100 µM (inactive)
same,GI50,UO-31,> 100 µM (inactive)
same,GI50,M19-MEL,> 100 µM (inactive)
same,GI50,IGROV-1,> 100 µM (inactive)
same,GI50,OVCAR-8,> 100 µM (inactive)
same,GI50,M14,> 100 µM (inactive)
same,GI50,KM12,> 100 µM (inactive)
same,GI50,DMS-273,> 100 µM (inactive)
same,GI50,CAKI-1,> 100 µM (inactive)
same,GI50,TK-10,> 100 µM (inactive)
same,GI50,ACHN,> 100 µM (inactive)
same,GI50,HCT-15,> 100 µM
same,GI50,RXF 393,> 100 µM (inactive)
same,GI50,NCI-H522,> 100 µM (inactive)
same,GI50,NCI-H23,> 100 µM (inactive)
same,GI50,SW-620,> 100 µM (inactive)
same,GI50,SN12C,> 100 µM (inactive)
same,GI50,SNB-75,> 100 µM (inactive)
same,GI50,NCI-H460,> 100 µM (inactive)
same,GI50,OVCAR-4,> 100 µM (inactive)
CC(C)(C)OP(=O)(OC(C)(C)C)C(O)c1ccc(/C=C(\C#N)C(N)=O)cc1 (stereo unspecified),GI50,K562,> 100 µM (inactive)
same,GI50,SNB-78,> 100 µM (inactive)
same,GI50,DMS-114,> 100 µM (inactive)
same,GI50,HT-29,> 100 µM (inactive)
same,GI50,SK-MEL-2,> 100 µM (inactive)
same,GI50,RPMI-8226,> 100 µM (inactive)
same,GI50,UACC-62,> 100 µM (inactive)
same,GI50,A549,> 100 µM (inactive)
same,GI50,SF-295,> 100 µM (inactive)
same,GI50,Malme-3M,> 100 µM (inactive)
same,GI50,DLD-1,> 100 µM (inactive)
same,GI50,786-0,> 100 µM (inactive)
same,GI50,CCRF-CEM,> 100 µM (inactive)
same,GI50,HL-60,38.9 µM (inactive)
same,GI50,HCT-116,> 100 µM (inactive)
same,GI50,NCI-H226,> 100 µM (inactive)
same,GI50,SK-MEL-28,> 100 µM (inactive)
same,GI50,OVCAR-5,> 100 µM (inactive)
same,GI50,COLO 205,> 100 µM (inactive)
same,GI50,SF-268,> 100 µM (inactive)
same,GI50,XF498,> 100 µM (inactive)
same,GI50,HOP-92,> 100 µM (inactive)
same,GI50,LXFL 529,> 100 µM (inactive)
same,GI50,SNB-19,> 100 µM (inactive)
same,GI50,KM-20L2,> 100 µM (inactive)
same,GI50,SK-OV-3,> 100 µM (inactive)
same,GI50,LOX IMVI,> 100 µM (inactive)
same,GI50,HOP-62,> 100 µM (inactive)
same,GI50,A498,> 100 µM (inactive)
same,GI50,U-251,> 100 µM (inactive)
same,GI50,HCC 2998,> 100 µM (inactive)
same,GI50,OVCAR-3,> 100 µM (inactive)
same,GI50,EKVX,> 100 µM (inactive)
same,GI50,MOLT-4,> 100 µM (inactive)
same,GI50,UACC-257,> 100 µM (inactive)
same,GI50,UO-31,> 100 µM (inactive)
same,GI50,M19-MEL,> 100 µM (inactive)
same,GI50,IGROV-1,> 100 µM (inactive)
same,GI50,OVCAR-8,> 100 µM (inactive)
same,GI50,M14,> 100 µM (inactive)
same,GI50,KM12,> 100 µM (inactive)
same,GI50,DMS-273,> 100 µM (inactive)
same,GI50,CAKI-1,> 100 µM (inactive)
same,GI50,TK-10,> 100 µM (inactive)
same,GI50,ACHN,> 100 µM (inactive)
same,GI50,SF-539,> 100 µM (inactive)
same,GI50,HCT-15,> 100 µM
same,GI50,RXF 393,> 100 µM (inactive)
same,GI50,NCI-H522,> 100 µM (inactive)
same,GI50,NCI-H23,> 100 µM (inactive)
same,GI50,SW-620,> 100 µM (inactive)
same,GI50,SN12C,> 100 µM (inactive)
same,GI50,SNB-75,> 100 µM (inactive)
same,GI50,NCI-H460,> 100 µM (inactive)
same,GI50,OVCAR-4,> 100 µM (inactive)
C=C1C(=O)O[C@H]2C[C@@H](C)[C@@H]3CC(=O)OC[C@@]3(C)CC12 (stereo partly specified),GI50,K562,17.5 µM (inactive)
same,GI50,HT-29,17.5 µM (inactive)
same,GI50,SK-MEL-2,35.8 µM (inactive)
same,GI50,RPMI-8226,21.4 µM (inactive)
same,GI50,UACC-62,19.2 µM (inactive)
same,GI50,HOP-18,36.5 µM (inactive)
same,GI50,A549,27.8 µM (inactive)
same,GI50,SF-295,21.6 µM (inactive)
same,GI50,Malme-3M,17.9 µM (inactive)
same,GI50,DLD-1,23.4 µM (inactive)
same,GI50,786-0,21.2 µM (inactive)
same,GI50,CCRF-CEM,12.9 µM (inactive)
same,GI50,HCT-116,21 µM (inactive)
same,GI50,SK-MEL-28,19.7 µM (inactive)
same,GI50,SK-MEL-5,34.3 µM (inactive)
same,GI50,COLO 205,20.9 µM (inactive)
same,GI50,SF-268,27.4 µM (inactive)
same,GI50,HOP-92,16.1 µM (inactive)
same,GI50,SNB-19,53.1 µM (inactive)
same,GI50,KM-20L2,18.5 µM (inactive)
same,GI50,SK-OV-3,97.7 µM (inactive)
same,GI50,LOX IMVI,24.9 µM (inactive)
same,GI50,HOP-62,44.8 µM (inactive)
same,GI50,U-251,97.3 µM (inactive)
same,GI50,HCC 2998,32.1 µM (inactive)
same,GI50,OVCAR-3,28 µM (inactive)
same,GI50,EKVX,27.5 µM (inactive)
same,GI50,MOLT-4,27.5 µM (inactive)
same,GI50,UO-31,49.1 µM (inactive)
same,GI50,M19-MEL,34.5 µM (inactive)
same,GI50,IGROV-1,51.6 µM (inactive)
same,GI50,OVCAR-8,17.9 µM (inactive)
same,GI50,M14,14.4 µM (inactive)
same,GI50,KM12,20.5 µM (inactive)
same,GI50,DMS-273,28.6 µM (inactive)
same,GI50,CAKI-1,18 µM (inactive)
same,GI50,TK-10,22.8 µM (inactive)
same,GI50,ACHN,21.7 µM (inactive)
same,GI50,SF-539,21.9 µM (inactive)
same,GI50,HCT-15,29.4 µM
same,GI50,NCI-H522,3.56 µM (inactive)
same,GI50,NCI-H23,23.3 µM (inactive)
same,GI50,SW-620,16.7 µM (inactive)
same,GI50,SN12C,21.6 µM (inactive)
same,GI50,SNB-75,30.1 µM (inactive)
same,GI50,NCI-H460,18.8 µM (inactive)
same,GI50,OVCAR-4,22.8 µM (inactive)
